Reference: paper PMC6920357, “CETSA-based target engagement of taxanes as biomarkers for efficacy and resistance” (Scientific Reports, 2019)
Like-named read-outs stand apart in the source and are kept apart here.

Test system: T1, β-tubulin
T1 construct: gene TUBB; endogenous untagged beta-tubulin (isotypes not resolved) in microtubules with alpha-tubulin, intact human cancer cells
Assay: isothermal dose response CETSA, AlphaLISA
Assay type: cell-based

SMILES: CC(=O)O[C@@]12CO[C@@H]1C[C@H](O)[C@@]1(C)C(=O)[C@H](O)C3=C(C)[C@@H](OC(=O)[C@H](O)[C@@H](NC(=O)OC(C)(C)C)c4ccccc4)C[C@@](O)([C@@H](OC(=O)c4ccccc4)[C@H]21)C3(C)C [docetaxel]
- EC50 (intact K562-P cells, 1 h 45 min at 37 °C, heated 63 °C 3 min, no tariquidar, taxane site, read-out: EC50): 300 ± 80 nM

SMILES: CC(=O)O[C@H]1C(=O)[C@@]2(C)[C@H]([C@H](OC(=O)c3ccccc3)[C@]3(O)C[C@H](OC(=O)[C@H](O)[C@@H](NC(=O)c4ccccc4)c4ccccc4)C(C)=C1C3(C)C)[C@]1(OC(C)=O)CO[C@@H]1C[C@@H]2O [paclitaxel]
- EC50: 1550 ± 300 nM

SMILES: CCC1=C[C@@H]2CN(C1)Cc1c([nH]c3ccccc13)[C@@](C(=O)OC)(c1cc3c(cc1OC)N(C)[C@H]1[C@@](O)(C(=O)OC)[C@H](OC(C)=O)[C@]4(CC)C=CCN5CC[C@]31[C@@H]54)C2 [vinorelbine]
- EC50 (intact PC346C prostate cancer cells, heated 63 °C, vinca site, read-out: EC50): 2020 ± 310 nM
